{"source": "patent US20230100235A1", "about": "“ANTICANCER AGENT COMPOSITION” (CARNA BIOSCIENCES, INC., priority 2020, published 2023)", "tested_on": "OCI-Ly10 cells", "experiment": "Combined effect of BTK inhibitor and BCL-2 inhibitor by BLISS score, OCI-Ly10", "type": "cell-based, Human", "details": "combination with venetoclax, 8×8 matrix, positive = synergistic", "protocol": "The BLISS score is one of the criteria used to evaluate synergistic effects in combination of agents (Borisy et al. Proc. Natl. Acad. Sci. USA., 100(13): 7977-7982 (2003); Griner et al. Proc. Natl. Acad. Sci. USA., 111(6): 2349-54 (2014)). This BLISS score was used to analyze the combined effect of a BTK inhibitor and a BCL-2 inhibitor in terms of proliferation inhibition to OCI-Ly10 cells.\nAfter 96 hours of culture, an Alamar Blue reagent was added, and 3 hours later, fluorescence of excitation wavelength 560 nm/fluorescence wavelength 590 nm was measured. Cell proliferation inhibition rate and viability (100−inhibition rate %) were determined by setting a compound-free and cell-free well as 100% and a compound-free and cell-containing well as 0%.\nTheoretical BLISS independence (BLISSin) for each well can be calculated from the following formula when agent A and agent B each are thought to have acted as a single agent (i.e., cell proliferation rate when the concentration of either one compound is 0). G is cell viability.\nBLISS score for each well can be derived from a difference between the theoretical BLISSin and a measured value of cell proliferation rate. If the BLISS score is a positive number, it is considered that a synergistic effect is present.\nBLISS score=100×(BLISSin−G)", "data": [{"smiles": "Nc1nc(-c2cccc(-n3ccc4cc(C5CC5)cc(F)c4c3=O)c2CO)c2cc(C3=CCN(C4COC4)CC3)[nH]c2n1", "note": "[Compound (I-A), 2-(3-{2-amino-6-[1-(oxetan-3-yl)-1,2,3,6-tetrahydropyridin-4-yl]-7H-pyrrolo[2,3-d]pyrimidin-4-yl}-2-(hydroxymethyl)phenyl)-6-cyclopropyl-8-fluoroisoquinolin-1(2H)-one]", "values": [{"measurement": "BLISS score", "result": "positive values"}]}]}
